Several values for one entry are separate records, joined by “and”; a condition that tells them apart may be missing. Equal values may be shown once.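 Interpolation was linear, between the two tested concentrations surrounding the appropriate level; five concentrations were tested over 48 hours in 96-well plates. The concentration for 50% growth inhibition is given as GI50. TGI: total growth inhibition.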
Experiments:
Test in all cases: NCI anticancer screen, dose series, 48 h
HOP-18 NSCLC = tested on: HOP-18 NSCLC
KM12 colon = tested on: KM12 colon
DMS 273 small cell lung = tested on: DMS 273 small cell lung
CAKI-1 renal = tested on: CAKI-1 renal
NCI-H460 lung = tested on: NCI-H460 lung
HOP-62 NSCLC = tested on: HOP-62 NSCLC
RXF-631 renal = tested on: RXF-631 renal
LXFL 529 NSCLC = tested on: LXFL 529 NSCLC
M19-MEL melanoma = tested on: M19-MEL melanoma
NCI-H522 lung = tested on: NCI-H522 lung
IGROV1 ovarian = tested on: IGROV1 ovarian
SK-MEL-5 melanoma = tested on: SK-MEL-5 melanoma
DLD-1 colon = tested on: DLD-1 colon
NCI-H23 lung = tested on: NCI-H23 lung
XF 498 CNS = tested on: XF 498 CNS
SK-OV-3 ovarian = tested on: SK-OV-3 ovarian
HCT-15 colon = tested on: HCT-15 colon
HL-60(TB) leukemia = tested on: HL-60(TB) leukemia
UACC-257 melanoma = tested on: UACC-257 melanoma
OVCAR-4 ovarian = tested on: OVCAR-4 ovarian
A498 renal = tested on: A498 renal
SNB-78 CNS = tested on: SNB-78 CNS
RPMI-8226 leukemia = tested on: RPMI-8226 leukemia
ACHN renal = tested on: ACHN renal
HOP-92 NSCLC = tested on: HOP-92 NSCLC
RXF 393 renal = tested on: RXF 393 renal
786-0 renal = tested on: 786-0 renal
KM20L2 colon = tested on: KM20L2 colon
HT29 colon = tested on: HT29 colon
LOX IMVI melanoma = tested on: LOX IMVI melanoma
SF-295 CNS = tested on: SF-295 CNS
OVCAR-3 ovarian = tested on: OVCAR-3 ovarian
EKVX NSCLC = tested on: EKVX NSCLC
A549 NSCLC = tested on: A549 NSCLC
OVCAR-5 ovarian = tested on: OVCAR-5 ovarian
MALME-3M melanoma = tested on: MALME-3M melanoma
HCT-116 colon = tested on: HCT-116 colon
HCC-2998 colon = tested on: HCC-2998 colon
SK-MEL-2 melanoma = tested on: SK-MEL-2 melanoma
SF-268 CNS = tested on: SF-268 CNS
SK-MEL-28 melanoma = tested on: SK-MEL-28 melanoma
U251 CNS = tested on: U251 CNS
SN12C renal = tested on: SN12C renal
TK-10 renal = tested on: TK-10 renal
DMS 114 small cell lung = tested on: DMS 114 small cell lung
NCI-H226 lung = tested on: NCI-H226 lung
SNB-75 CNS = tested on: SNB-75 CNS
SR leukemia = tested on: SR leukemia
SW-620 colon = tested on: SW-620 colon
K-562 leukemia = tested on: K-562 leukemia
UACC-62 melanoma = tested on: UACC-62 melanoma
MOLT-4 leukemia = tested on: MOLT-4 leukemia
CCRF-CEM leukemia = tested on: CCRF-CEM leukemia
UO-31 renal = tested on: UO-31 renal
SNB-19 CNS = tested on: SNB-19 CNS
OVCAR-8 ovarian = tested on: OVCAR-8 ovarian
M14 melanoma = tested on: M14 melanoma
SF-539 CNS = tested on: SF-539 CNS
COLO 205 colon = tested on: COLO 205 colon

CCCCCCCCCCCCCC(=O)O[C@H]1CC[C@H](NC(=O)[C@H](OC)[C@H](O)[C@@H](O)[C@H](O)/C=C/C(C)C)C(=O)N(C)C1
GI50 (HOP-18 NSCLC): 11.3 µM
TGI (HOP-18 NSCLC): 15 µM and > 23.8 µM
GI50 (KM12 colon): 0.00238 µM
TGI (KM12 colon): 15 µM and 2.96 µM
TGI (DMS 273 small cell lung): 0.00403 µM
TGI (CAKI-1 renal): 0.668 µM
GI50 (NCI-H460 lung): 0.00238 µM
TGI (NCI-H460 lung): 0.371 µM and 3.01 µM
GI50 (HOP-62 NSCLC): > 23.8 µM
TGI (HOP-62 NSCLC): 15 µM and > 23.8 µM
GI50 (RXF-631 renal): 0.00238 µM
TGI (RXF-631 renal): 15 µM and 4.07 µM
GI50 (LXFL 529 NSCLC): 0.00238 µM
TGI (LXFL 529 NSCLC): 15 µM and 3.94 µM
GI50 (M19-MEL melanoma): 0.00238 µM
TGI (M19-MEL melanoma): 15 µM and 3.89 µM
GI50 (NCI-H522 lung): 0.00689 µM
TGI (NCI-H522 lung): 0.269 µM and 0.168 µM
GI50 (IGROV1 ovarian): 0.00377 µM
TGI (IGROV1 ovarian): 15 µM and > 23.8 µM
GI50 (SK-MEL-5 melanoma): 0.00347 µM
TGI (SK-MEL-5 melanoma): 0.337 µM and 0.0726 µM
GI50 (DLD-1 colon): 0.00278 µM
TGI (DLD-1 colon): 15 µM and > 23.8 µM
GI50 (NCI-H23 lung): 0.00328 µM
TGI (NCI-H23 lung): 0.15 µM and 0.056 µM
GI50 (XF 498 CNS): 0.0043 µM
GI50 (SK-OV-3 ovarian): 0.0194 µM
TGI (SK-OV-3 ovarian): 15 µM and > 23.8 µM
GI50 (HCT-15 colon): 0.23 µM
TGI (HCT-15 colon): 15 µM and > 23.8 µM
GI50 (HL-60(TB) leukemia): 0.00238 µM
TGI (HL-60(TB) leukemia): 2.43 µM and 3.71 µM
GI50 (UACC-257 melanoma): 0.00238 µM
TGI (UACC-257 melanoma): 15 µM and 13 µM
GI50 (OVCAR-4 ovarian): 0.00391 µM
TGI (OVCAR-4 ovarian): 15 µM and 11.1 µM
GI50 (A498 renal): 0.453 µM
TGI (A498 renal): > 23.8 µM
TGI (SNB-78 CNS): 15 µM
GI50 (RPMI-8226 leukemia): 0.00392 µM
TGI (RPMI-8226 leukemia): 15 µM and 8.02 µM
GI50 (ACHN renal): 0.0306 µM
TGI (ACHN renal): 15 µM and > 23.8 µM
TGI (HOP-92 NSCLC): 0.0541 µM
GI50 (RXF 393 renal): 0.00238 µM
GI50 (786-0 renal): 0.00238 µM
TGI (786-0 renal): 15 µM and 3.18 µM
GI50 (KM20L2 colon): < 0.0015 µM
TGI (KM20L2 colon): 15 µM and 3.8 µM
GI50 (HT29 colon): 0.00238 µM
TGI (HT29 colon): 15 µM and 3.07 µM
TGI (LOX IMVI melanoma): 15 µM and 3.34 µM
GI50 (SF-295 CNS): 0.00238 µM
TGI (SF-295 CNS): 15 µM and 3.03 µM
GI50 (OVCAR-3 ovarian): 0.0139 µM
TGI (OVCAR-3 ovarian): 15 µM and > 23.8 µM
GI50 (EKVX NSCLC): 1.36 µM
TGI (EKVX NSCLC): 15 µM and > 23.8 µM
GI50 (A549 NSCLC): 0.00238 µM
TGI (A549 NSCLC): 15 µM and 4.49 µM
GI50 (OVCAR-5 ovarian): > 23.8 µM
TGI (OVCAR-5 ovarian): 15 µM and > 23.8 µM
GI50 (MALME-3M melanoma): 0.00717 µM
TGI (MALME-3M melanoma): 15 µM and > 23.8 µM
TGI (HCT-116 colon): 15 µM and 2.46 µM
GI50 (HCC-2998 colon): 0.00238 µM
TGI (HCC-2998 colon): 0.63 µM and 4.25 µM
GI50 (SK-MEL-2 melanoma): 0.0156 µM
TGI (SK-MEL-2 melanoma): 15 µM and 6.33 µM
GI50 (SF-268 CNS): 0.0235 µM
TGI (SF-268 CNS): 15 µM and 2.38 µM
GI50 (SK-MEL-28 melanoma): 0.00238 µM
TGI (SK-MEL-28 melanoma): 15 µM and 3.57 µM
GI50 (U251 CNS): < 0.0015 µM
TGI (U251 CNS): 15 µM and 3.06 µM
GI50 (SN12C renal): 0.00238 µM
TGI (SN12C renal): 15 µM and 4.84 µM
GI50 (TK-10 renal): 0.05 µM
TGI (TK-10 renal): 15 µM and > 23.8 µM
TGI (DMS 114 small cell lung): 0.817 µM
GI50 (NCI-H226 lung): 0.544 µM
GI50 (SNB-75 CNS): 0.0217 µM
TGI (SNB-75 CNS): 15 µM and > 23.8 µM
TGI (SR leukemia): 2.46 µM
GI50 (SW-620 colon): 0.00238 µM
TGI (SW-620 colon): 15 µM and 5.48 µM
GI50 (K-562 leukemia): 0.00238 µM
TGI (K-562 leukemia): 15 µM and > 23.8 µM
GI50 (UACC-62 melanoma): 0.00238 µM
TGI (UACC-62 melanoma): 0.0655 µM and 0.00779 µM
GI50 (MOLT-4 leukemia): 0.00238 µM
TGI (MOLT-4 leukemia): 15 µM and 5.24 µM
GI50 (CCRF-CEM leukemia): 0.00238 µM
TGI (CCRF-CEM leukemia): 15 µM and 4.85 µM
GI50 (UO-31 renal): 0.0283 µM
TGI (UO-31 renal): 15 µM and 8.93 µM
GI50 (SNB-19 CNS): 0.0093 µM
TGI (SNB-19 CNS): 15 µM and > 23.8 µM
GI50 (OVCAR-8 ovarian): 0.00238 µM
TGI (OVCAR-8 ovarian): 15 µM and 3.59 µM
GI50 (M14 melanoma): 0.00238 µM
TGI (M14 melanoma): 1.75 µM and 0.413 µM
GI50 (SF-539 CNS): 0.0126 µM
TGI (SF-539 CNS): 15 µM and > 23.8 µM

O=[N+]([O-])c1cccnc1S(=O)(=O)c1ccccc1
TGI (HOP-18 NSCLC): 25.7 µM
TGI (KM12 colon): 36.3 µM
TGI (DMS 273 small cell lung): 21.3 µM
TGI (CAKI-1 renal): 6.98 µM
TGI (NCI-H460 lung): 27.8 µM
TGI (HOP-62 NSCLC): 32.8 µM
TGI (RXF-631 renal): 8.01 µM
TGI (LXFL 529 NSCLC): 5.87 µM
TGI (M19-MEL melanoma): 27.3 µM
TGI (NCI-H522 lung): 2.82 µM
TGI (IGROV1 ovarian): 20.3 µM
TGI (SK-MEL-5 melanoma): 32.6 µM
TGI (DLD-1 colon): 7.27 µM
TGI (NCI-H23 lung): 30.3 µM
TGI (XF 498 CNS): 25.8 µM
TGI (SK-OV-3 ovarian): 44.7 µM
TGI (HCT-15 colon): 21.7 µM
TGI (HL-60(TB) leukemia): 7.01 µM
TGI (UACC-257 melanoma): 33.4 µM
TGI (OVCAR-4 ovarian): 17.1 µM
TGI (A498 renal): 36.6 µM
TGI (SNB-78 CNS): 44 µM
TGI (RPMI-8226 leukemia): 36.4 µM
TGI (ACHN renal): 11.4 µM
TGI (HOP-92 NSCLC): 3.64 µM
TGI (RXF 393 renal): 3.77 µM
TGI (786-0 renal): 7.09 µM
TGI (KM20L2 colon): 30.3 µM
TGI (HT29 colon): 14.3 µM
TGI (LOX IMVI melanoma): 15.7 µM
TGI (COLO 205 colon): 11 µM
TGI (SF-295 CNS): 32.5 µM
TGI (OVCAR-3 ovarian): 3.84 µM
TGI (EKVX NSCLC): 14.5 µM
TGI (A549 NSCLC): 40.4 µM
TGI (OVCAR-5 ovarian): 29.4 µM
TGI (MALME-3M melanoma): 23.8 µM
TGI (HCT-116 colon): 21.6 µM
TGI (HCC-2998 colon): 39.6 µM
TGI (SK-MEL-2 melanoma): 31.1 µM
TGI (SF-268 CNS): 27.3 µM
TGI (SK-MEL-28 melanoma): 34.6 µM
TGI (U251 CNS): 22.8 µM
TGI (SN12C renal): 23.5 µM
TGI (TK-10 renal): 22.2 µM
TGI (DMS 114 small cell lung): 8.53 µM
TGI (NCI-H226 lung): 34.7 µM
TGI (SNB-75 CNS): 35.9 µM
TGI (SR leukemia): > 100 µM
TGI (SW-620 colon): 8.38 µM
TGI (K-562 leukemia): > 43.8 µM
TGI (UACC-62 melanoma): 23.9 µM
TGI (MOLT-4 leukemia): > 25.7 µM
TGI (CCRF-CEM leukemia): > 100 µM
TGI (UO-31 renal): 14 µM
TGI (SNB-19 CNS): 34.1 µM
TGI (OVCAR-8 ovarian): 26.8 µM
TGI (M14 melanoma): 22.5 µM
TGI (SF-539 CNS): 24 µM

From PubChem BioAssay (NCI)
